*1 amine or outer side, *2 acyl side, *3 side chain or, on linkers, in order; H or OH if unused. Where a SMILES comes first, the peptide text is derived from it. Bridges are numbered along the chain shown (N, C = ends). Roman numbers before positions name the chains, in order. [ ]: non-standard residue; d: D form. CO(CH2)2(OCH2CH2)17CO = O=C(CCOCCOCCOCCOCCOCCOCCOCCOCCOCCOCCOCCOCCOCCOCCOCCOCCOCCC(=O)[*:2])[*:1]; X1 = O=C(OCCOCCOCCOCCOCCOCCOCCOCCOCCOCCOCCOCCOCCOCCOCCOCCOC(=O)[*:2])[*:1]; X2 = O=C(OCCOCCOCCOCCOCCOCCOCCOCCOCCOCCOCCOCCOC(=O)[*:2])[*:1]; Phe(4-guanidino) = N=C(N)Nc1ccc(C[C@H](N)C(=O)O)cc1; Trp(7-aza) = N[C@@H](Cc1c[nH]c2ncccc12)C(=O)O; hTyr = N[C@@H](CCc1ccc(O)cc1)C(=O)O; Hyp = O=C(O)[C@@H]1C[C@@H](O)CN1; tBuAla = CC(C)(C)C[C@H](N)C(=O)O; Tle = CC(C)(C)[C@H](N)C(=O)O
Biological target: T1, VEGFR-2 (Homo sapiens, UniProt P35968)
T1 construct: endogenous in cells; host or cells: HUVEC
T1 sequence (P35968 20-1356): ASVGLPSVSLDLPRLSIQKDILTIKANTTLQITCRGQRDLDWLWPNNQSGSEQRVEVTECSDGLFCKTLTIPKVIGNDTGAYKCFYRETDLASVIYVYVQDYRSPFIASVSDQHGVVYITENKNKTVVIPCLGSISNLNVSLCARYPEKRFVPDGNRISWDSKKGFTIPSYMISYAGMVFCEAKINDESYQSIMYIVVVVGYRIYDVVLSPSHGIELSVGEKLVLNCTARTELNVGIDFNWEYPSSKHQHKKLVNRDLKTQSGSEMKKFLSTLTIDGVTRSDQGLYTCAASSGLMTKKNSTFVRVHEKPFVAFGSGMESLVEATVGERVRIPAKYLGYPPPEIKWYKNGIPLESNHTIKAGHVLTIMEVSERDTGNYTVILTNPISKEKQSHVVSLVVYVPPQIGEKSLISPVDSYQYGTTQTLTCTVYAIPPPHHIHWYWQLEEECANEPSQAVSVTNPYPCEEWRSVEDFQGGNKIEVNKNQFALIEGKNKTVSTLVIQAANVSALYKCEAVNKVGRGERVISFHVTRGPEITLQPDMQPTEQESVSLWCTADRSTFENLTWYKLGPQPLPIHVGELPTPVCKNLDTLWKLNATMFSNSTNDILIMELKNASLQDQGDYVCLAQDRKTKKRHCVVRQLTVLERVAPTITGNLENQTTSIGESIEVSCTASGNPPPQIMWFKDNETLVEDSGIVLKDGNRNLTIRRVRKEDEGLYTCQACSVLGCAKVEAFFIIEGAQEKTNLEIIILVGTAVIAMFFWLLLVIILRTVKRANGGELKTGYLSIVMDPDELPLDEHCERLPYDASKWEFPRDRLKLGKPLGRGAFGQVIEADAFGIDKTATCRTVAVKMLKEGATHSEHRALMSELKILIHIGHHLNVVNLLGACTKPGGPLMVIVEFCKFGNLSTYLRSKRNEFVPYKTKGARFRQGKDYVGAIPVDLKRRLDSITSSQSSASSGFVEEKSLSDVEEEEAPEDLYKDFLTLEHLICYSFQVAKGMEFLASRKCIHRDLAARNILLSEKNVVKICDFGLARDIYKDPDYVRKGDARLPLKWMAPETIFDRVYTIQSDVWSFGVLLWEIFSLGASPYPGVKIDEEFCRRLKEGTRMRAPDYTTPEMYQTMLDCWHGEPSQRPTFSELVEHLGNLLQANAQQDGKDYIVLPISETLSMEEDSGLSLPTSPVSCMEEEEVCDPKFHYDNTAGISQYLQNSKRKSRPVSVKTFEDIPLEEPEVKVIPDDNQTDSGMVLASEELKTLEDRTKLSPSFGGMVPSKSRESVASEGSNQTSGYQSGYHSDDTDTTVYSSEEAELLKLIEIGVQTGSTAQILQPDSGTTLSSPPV
Test: pVEGFR AlphaLISA assay (VEGFR-2 phosphorylation, p-Tyr1175) in HUVECs
Assay type: cell-based
Conditions: 10 minutes stimulation, % activity, maximum VEGF165a signal = 100%, unstimulated = 0%, peptide 1.25, 5, 20 nM (dimer structures 42-57)
Description: To evaluate the VEGFR-2 activation ability of the VEGFR-2 agonist peptides of the present invention, VEGFR-2 phosphorylation was verified. HUVECs were cultured using EGM™ -2 Endothelial Cell Growth Medium-2 BulletKit (LONZA; CC-3162). After detaching cells using Tryple (Thermo Fisher Scientific), they were seeded into a 96-well PDL-coated plate (Corning: 354461) at a density of 24,000 cells per well and cultured for 2 days. For starvation, the medium was replaced with EBM-2 medium (LONZA) containing 0.5% FBS (Thermo Fisher Scientific), 0.1% heparin (included with the above LONZA CC-3162), and 0.1% gentamicin (Nacalai), and the cells were cultured for 18 hours. Subsequently, Recombinant Human VEGF165a Protein (R&D Systems) or the peptide was added, and the cells were cultured in a CO2 incubator at 37°C. After 10 minutes of stimulation, cells were lysed using the Lysis Buffer included in the AlphaLISA SureFire Ultra VEGFR-2 (p-Tyr1175) Assay Kit (PerkinElmer) to lyse the cells. The procedure was performed according to the kit protocol, and signal detection was performed using a SpectraMax Paradigm multimode microplate reader (Molecular Devices). The obtained signals were analyzed using GraphPad Prism, and % activity was calculated with the maximum signal induced by VEGF165a set as 100% and the unstimulated control as 0%.
The VEGF165a concentration was evaluated at five points (0.08, 0.31, 1.25, 5, 20 nM) using 1/4-fold dilutions starting from 20 nM to determine the maximum value (100%). Peptide concentrations tested were: 3.2, 16, 80 nM for dimer structure number 1; 10, 100 nM for dimer structures numbers 2-41; and 1.25, 5, 20 nM for dimer structures numbers 42-57. […]
Peptides showing 50% or more activity at 10 nM were designated 2-A, those showing 50% or more activity at 100 nM were designated 2-B, and those showing 1% or more but less than 50% activity at 100 nM were designated 2-C.
Peptides showing 50% or more activity at 1.25 nM were designated 3-A, those showing 50% or more activity at 5 nM were designated 3-B, those showing 50% or more activity at 20 nM were designated 3-C, and those showing 1% or more but less than 50% activity at 20 nM were designated 3-D.

Compound | pVEGFR2 Assay Results
CC(C)C[C@@H]1NC(=O)[C@H](CC(=O)O)NC(=O)[C@H](CC(=O)O)NC(=O)[C@H](CCCCNC(=O)CCOCCOCCOCCOCCOCCOCCOCCOCCOCCOCCOCCOCCOCCOCCOCCOCCOCCC(=O)NCCCC[C@@H]2NC(=O)[C@H](C(C)C)NC(=O)[C@H](CC(=O)O)NC(=O)[C@H](C(C)(C)C)NC(=O)[C@H](Cc3c[nH]c4ccccc34)NC(=O)[C@H](Cc3c[nH]c4ncccc34)NC(=O)CSC[C@@H](C(=O)NCC(N)=O)NC(=O)[C@H](CC(=O)O)NC(=O)[C@H](CCc3ccc(O)cc3)NC(=O)[C@H](Cc3ccccc3)NC(=O)[C@H](Cc3ccc(O)cc3)NC(=O)[C@H](CC(C)C)NC(=O)[C@H](CC(=O)O)NC(=O)[C@H](CC(=O)O)NC2=O)NC(=O)[C@H](C(C)C)NC(=O)[C@H](CC(=O)O)NC(=O)[C@H](C(C)(C)C)NC(=O)[C@H](Cc2c[nH]c3ccccc23)NC(=O)[C@H](Cc2c[nH]c3ncccc23)NC(=O)CSC[C@@H](C(=O)NCC(N)=O)NC(=O)[C@H](CC(=O)O)NC(=O)[C@H](CCc2ccc(O)cc2)NC(=O)[C@H](Cc2ccccc2)NC(=O)[C@H](Cc2ccc(O)cc2)NC1=O [compound 46] (I: {CH2CO}-[Trp(7-aza)]W[Tle]DVKDDLYF[hTyr]DCG-NH2 / II: {CH2CO}-[Trp(7-aza)]W[Tle]DVKDDLYF[hTyr]DCG-NH2; linker I:6-II:6 via CO(CH2)2(OCH2CH2)17CO; thioether I:N-I:14, II:N-II:14) | 3-C (50% or more activity at 20 nM)
CC(C)C[C@@H]1NC(=O)[C@H](CC(=O)O)NC(=O)[C@H](CC(N)=O)NC(=O)[C@H](CCCCNC(=O)CCOCCOCCOCCOCCOCCOCCOCCOCCOCCOCCOCCOCCOCCOCCOCCOCCOCCC(=O)NCCCC[C@@H]2NC(=O)[C@H](C(C)C)NC(=O)[C@H](CC(=O)O)NC(=O)[C@H](C(C)(C)C)NC(=O)[C@H](Cc3c[nH]c4ccccc34)NC(=O)[C@H](Cc3c[nH]c4ccccc34)NC(=O)CSC[C@@H](C(=O)NCC(N)=O)NC(=O)[C@H](CC(=O)O)NC(=O)[C@H](CCc3ccc(O)cc3)NC(=O)[C@H](Cc3ccccc3)NC(=O)[C@H](Cc3ccc(O)cc3)NC(=O)[C@H](CC(C)C)NC(=O)[C@H](CC(=O)O)NC(=O)[C@H](CC(N)=O)NC2=O)NC(=O)[C@H](C(C)C)NC(=O)[C@H](CC(=O)O)NC(=O)[C@H](C(C)(C)C)NC(=O)[C@H](Cc2c[nH]c3ccccc23)NC(=O)[C@H](Cc2c[nH]c3ccccc23)NC(=O)CSC[C@@H](C(=O)NCC(N)=O)NC(=O)[C@H](CC(=O)O)NC(=O)[C@H](CCc2ccc(O)cc2)NC(=O)[C@H](Cc2ccccc2)NC(=O)[C@H](Cc2ccc(O)cc2)NC1=O [compound 47] (I: {CH2CO}-WW[Tle]DVKNDLYF[hTyr]DCG-NH2 / II: {CH2CO}-WW[Tle]DVKNDLYF[hTyr]DCG-NH2; linker I:6-II:6 via CO(CH2)2(OCH2CH2)17CO; thioether I:N-I:14, II:N-II:14) | 3-C (50% or more activity at 20 nM)
CC(C)[C@@H]1NC(=O)[C@H](CC(=O)O)NC(=O)[C@H](CCc2ccc(O)cc2)NC(=O)[C@H](Cc2c[nH]c3ccccc23)NC(=O)[C@H](Cc2c[nH]c3ccccc23)NC(=O)CSC[C@@H](C(=O)NCC(N)=O)NC(=O)[C@H](CC(=O)O)NC(=O)[C@H](CCc2ccc(O)cc2)NC(=O)[C@H](Cc2ccc(NC(=N)N)cc2)NC(=O)[C@H](Cc2ccc(O)cc2)NC(=O)[C@H](CC(C)(C)C)NC(=O)[C@H](CC(=O)O)NC(=O)[C@H](CC(=O)O)NC(=O)[C@H](CCCCNC(=O)OCCOCCOCCOCCOCCOCCOCCOCCOCCOCCOCCOCCOC(=O)NCCCC[C@@H]2NC(=O)[C@H](C(C)C)NC(=O)[C@H](CC(=O)O)NC(=O)[C@H](CCc3ccc(O)cc3)NC(=O)[C@H](Cc3c[nH]c4ccccc34)NC(=O)[C@H](Cc3c[nH]c4ccccc34)NC(=O)CSC[C@@H](C(=O)NCC(N)=O)NC(=O)[C@H](CC(=O)O)NC(=O)[C@H](CCc3ccc(O)cc3)NC(=O)[C@H](Cc3ccc(NC(=N)N)cc3)NC(=O)[C@H](Cc3ccc(O)cc3)NC(=O)[C@H](CC(C)(C)C)NC(=O)[C@H](CC(=O)O)NC(=O)[C@H](CC(=O)O)NC2=O)NC1=O [compound 57] (I: {CH2CO}-WW[hTyr]DVKDD[tBuAla]Y[Phe(4-guanidino)][hTyr]DCG-NH2 / II: {CH2CO}-WW[hTyr]DVKDD[tBuAla]Y[Phe(4-guanidino)][hTyr]DCG-NH2; linker I:6-II:6 via X2; thioether I:N-I:14, II:N-II:14) | 3-D (1% or more but less than 50% activity at 20 nM)

The next lines start with the values.

pVEGFR2 Assay Results | Compound
3-B (50% or more activity at 5 nM) | CC(C)[C@@H]1NC(=O)[C@H](CC(=O)O)NC(=O)[C@H](C(C)(C)C)NC(=O)[C@H](Cc2c[nH]c3ccccc23)NC(=O)[C@H](Cc2c[nH]c3ccccc23)NC(=O)CSC[C@@H](C(=O)NCC(N)=O)NC(=O)[C@H](CC(=O)O)NC(=O)[C@H](CCc2ccc(O)cc2)NC(=O)[C@H](Cc2ccc(NC(=N)N)cc2)NC(=O)[C@H](Cc2ccc(O)cc2)NC(=O)[C@H](CC(C)(C)C)NC(=O)[C@H](CC(=O)O)NC(=O)[C@H](CC(=O)O)NC(=O)[C@H](CCCCNC(=O)OCCOCCOCCOCCOCCOCCOCCOCCOCCOCCOCCOCCOCCOCCOCCOCCOC(=O)NCCCC[C@@H]2NC(=O)[C@H](C(C)C)NC(=O)[C@H](CC(=O)O)NC(=O)[C@H](C(C)(C)C)NC(=O)[C@H](Cc3c[nH]c4ccccc34)NC(=O)[C@H](Cc3c[nH]c4ccccc34)NC(=O)CSC[C@@H](C(=O)NCC(N)=O)NC(=O)[C@H](CC(=O)O)NC(=O)[C@H](CCc3ccc(O)cc3)NC(=O)[C@H](Cc3ccc(NC(=N)N)cc3)NC(=O)[C@H](Cc3ccc(O)cc3)NC(=O)[C@H](CC(C)(C)C)NC(=O)[C@H](CC(=O)O)NC(=O)[C@H](CC(=O)O)NC2=O)NC1=O [compound 53] (I: {CH2CO}-WW[Tle]DVKDD[tBuAla]Y[Phe(4-guanidino)][hTyr]DCG-NH2 / II: {CH2CO}-WW[Tle]DVKDD[tBuAla]Y[Phe(4-guanidino)][hTyr]DCG-NH2; linker I:6-II:6 via X1; thioether I:N-I:14, II:N-II:14)
3-B (50% or more activity at 5 nM) | CC(C)[C@@H]1NC(=O)[C@H](CC(=O)O)NC(=O)[C@H](C(C)(C)C)NC(=O)[C@H](Cc2c[nH]c3ccccc23)NC(=O)[C@H](Cc2c[nH]c3ccccc23)NC(=O)CSC[C@@H](C(=O)NCC(N)=O)NC(=O)[C@@H]2C[C@@H](O)CN2C(=O)[C@H](CCc2ccc(O)cc2)NC(=O)[C@H](Cc2ccc(NC(=N)N)cc2)NC(=O)[C@H](Cc2ccc(O)cc2)NC(=O)[C@H](CC(C)(C)C)NC(=O)[C@H](CC(=O)O)NC(=O)[C@H](CC(=O)O)NC(=O)[C@H](CCCCNC(=O)OCCOCCOCCOCCOCCOCCOCCOCCOCCOCCOCCOCCOC(=O)NCCCC[C@@H]2NC(=O)[C@H](C(C)C)NC(=O)[C@H](CC(=O)O)NC(=O)[C@H](C(C)(C)C)NC(=O)[C@H](Cc3c[nH]c4ccccc34)NC(=O)[C@H](Cc3c[nH]c4ccccc34)NC(=O)CSC[C@@H](C(=O)NCC(N)=O)NC(=O)[C@@H]3C[C@@H](O)CN3C(=O)[C@H](CCc3ccc(O)cc3)NC(=O)[C@H](Cc3ccc(NC(=N)N)cc3)NC(=O)[C@H](Cc3ccc(O)cc3)NC(=O)[C@H](CC(C)(C)C)NC(=O)[C@H](CC(=O)O)NC(=O)[C@H](CC(=O)O)NC2=O)NC1=O [compound 54] (I: {CH2CO}-WW[Tle]DVKDD[tBuAla]Y[Phe(4-guanidino)][hTyr][Hyp]CG-NH2 / II: {CH2CO}-WW[Tle]DVKDD[tBuAla]Y[Phe(4-guanidino)][hTyr][Hyp]CG-NH2; linker I:6-II:6 via X2; thioether I:N-I:14, II:N-II:14)

From patent publication EP4748847A1, “PEPTIDE COMPLEX HAVING VEGFR -2 AGONIST ACTIVITY” (Peptidream Inc, priority 2023, dated 2025)
